Measurements published in patent US20250222003A1, “PHARMACEUTICAL COMPOSITION FOR TREATING SOLID TUMORS” (Eisai R&D Management Co., Ltd., priority 2021, published 2025).

Tested on: patients with a solid tumor
Assay: Suppression of nausea or vomiting associated with administration of Compound A by antiemetics
Type: in vivo, human
Details: for number of subjects in which vomiting could not be suppressed: Compound A 160 mg BID; for number of subjects in which vomiting could not be suppressed / number of subjects in which vomiting could be suppressed / number of subjects showing improvement after switch from non-5-HT3 antiemetic to the 5-HT3 receptor antagonist: ramosetron or granisetron; for number of subjects in which vomiting could be suppressed / number of subjects showing improvement after switch from non-5-HT3 antiemetic to the 5-HT3 receptor antagonist / number of subjects that did not show improvement of vomiting after the antiemetic: of 20 subjects; for number of subjects that did not show improvement of vomiting after the antiemetic: domperidone, metoclopramide or prochlorperazine; for number of subjects showing improvement of vomiting by the antiemetic: of 20 subjects complaining of vomiting during Cycle 1, prochlorperazine or metoclopramide
Description: For subjects of administration that had the gastrointestinal symptoms, nausea or vomiting, the results of administration of various antiemetics were investigated to determine whether they could suppress the occurrence of nausea or vomiting. The antiemetics used were domperidone ([…], Nauzelin tablet), metoclopramide (peripheral D2 receptor antagonist, metoclopramide tablet), ramosetron hydrochloride (5-HT3 receptor antagonist, Nasea tablet), granisetron (5-HT3 receptor antagonist (Kytril tablet), and the like.
The antiemetics were timely administered to 20 subjects of administration that complained of vomiting during Cycle 1.
FIGS. 1 and 2 are graphs showing the relationship between Cmax(Cmax,ss) or AUC (AUC(0-tau),ss) and the vomiting flag for each test subject at the time of CID8. For example, the vomiting flag 3 means a case in which treatment with an antiemetic other than the 5-HT3 receptor antagonist was first attempted but vomiting could not be suppressed, and vomiting could be suppressed when the antiemetic was switched to the 5-HT3 receptor antagonist.
Five additional patients were investigated whether the occurrence of nausea or vomiting, which is an adverse event having a causal relationship with Compound A, could be suppressed. Ramosetron hydrochloride or granisetron hydrochloride (5-HT3 receptor antagonist) was administered to four patients of administration that complained of vomiting during Cycle 1. Of the four patients that complained of vomiting, three patients received granisetron hydrochloride to prevent the gastrointestinal symptoms (nausea, vomiting) associated with administration of Compound A.

Row | Structure (SMILES) | number of subjects in which vomiting could not be suppressed | number of test subjects in which vomiting could be suppressed when given after symptoms of nausea or vomiting (additional patients, Compound A 120 mg BID) | vomiting after prophylactic administration (additional patients, Compound A 120 mg BID, three patients) | number of subjects in which vomiting could be suppressed | number of subjects showing improvement after switch from non-5-HT3 antiemetic to the 5-HT3 receptor antagonist | number of subjects in which vomiting could be prevented when given at onset of nausea (of the twelve subjects) | number of subjects that did not show improvement of vomiting after the antiemetic | number of subjects showing improvement of vomiting by the antiemetic
1 | CN1[C@@H]2CCC[C@H]1C[C@@H](NC(=O)c1nn(C)c3ccccc13)C2.Cl [granisetron, 1-methyl-N-(endo-9-methyl-9-azabicyclo[3.3.1]non-3-yl)-1H-indazole-3-carboxamide hydrochloride] | two | one | no vomiting occurred afterwards | twelve | four | two | – | –
2 | O=c1[nH]c2ccccc2n1CCCN1CCC(n2c(=O)[nH]c3cc(Cl)ccc32)CC1 [domperidone] | – | – | – | – | – | – | four | –
3 | CN1CCN(CCCN2c3ccccc3Sc3ccc(Cl)cc32)CC1 [prochlorperazine] | – | – | – | – | – | – | four | Two
4 | Cl.Cn1cc(C(=O)[C@@H]2CCc3[nH]cnc3C2)c2ccccc21 [ramosetron, (−)-(R)-5-[(1-methyl-1H-indol-3-yl)carbonyl]-4,5,6,7-tetrahydro-1H-benzimidazole monohydrochloride] | two | – | – | twelve | four | – | – | –
5 | CCN(CC)CCNC(=O)c1cc(Cl)c(N)cc1OC [metoclopramide] | – | – | – | – | – | – | four | Two
